# Data reported in US20250250567A1, “PROTOZOA TRANSCRIPTION FACTOR INHIBITOR” (priority 2022, published 2025).
# Key:
# [1] = target: dsDNA containing the target sequence TGCATG (SEQ ID NO: 1), AP2-Sc binding sequence; experiment: binding affinity of PIPA to dsDNA containing the target sequence; design: species or system P. falciparum
# Experimental: FIG. 1b is a schematic diagram showing a DNA fragment used in one embodiment of the present disclosure to analyze a binding strength of AP2-PIPA1 to its target sequence;
# (§1) Next, a binding affinity of a PIPA to dsDNA containing the target sequence for the AP2-PIPA (FIG. 1b) was verified. As designed, the AP2-PIPA1 was bound to the target sequence with a high binding activity, that is, a Kd value of 4.0 nM (FIG. 1c). Consistent with previous reports of low off-target toxicity of a PIPA, the AP2-PIPA was not toxic in either mouse cell lines (Raw264.7 cells, NIH3T3 cells) or human cell lines (U937 cells, A549 cells) (FIG. 2a and FIG. 2b). These analysis results support safety of a PIPA at least in the dose range in vitro.
# [2] = test system: Raw264.7 cells, NIH3T3 cells; experiment: cytotoxicity in mouse cell lines (DNA release, LDH activity in culture supernatant); type: cell-based; details: mouse cell lines Raw264.7, NIH3T3; DNA release and LDH activity in culture supernatant
# Experimental: as §1
# U937 cells, A549 cells = experiment: cytotoxicity in human cell lines (DNA release, LDH activity in culture supernatant); type: cell-based; details: DNA release and LDH activity in culture supernatant
# Experimental: as §1
# [3] = toxicity of a single intraperitoneal administration in mice; type: in vivo
# Experimental: (§2) Toxicity of a single intraperitoneal administration of AP2-PIPA1 was studied in mice. […] Observation of viability and general conditions, measurement of body weight, a hematology test, a blood chemistry test, and necropsy were performed as toxicity assessment indices. […] However, the value for each individual in these groups falls within a background value (34 to 58 IU/L) and thus the changes are determined to be due to physiological variation.
# as §2, with “Furthermore, toxicity of a” for “Toxicity of a”, “administration of the AP2-PIPA1 was” for “administration of AP2-PIPA1 was”
# [4] = toxicity of multiple administrations in mice; type: in vivo; details: once daily for 7 days orally or intraperitoneally
# Experimental: Mice received various doses of AP2-PIPA1 once daily for 7 days orally or intraperitoneally. On day 8, blood was collected and AST and ALT were measured. Significant difference tests were performed for the 3 mg/kg and 10 mg/kg dose groups relative to the control group for each route of administration.
# Furthermore, toxicity of multiple administrations of the AP2-PIPA1 was studied in mice. Mice received various doses of the AP2-PIPA1 once daily for 7 days orally or intraperitoneally. On day 8, blood was collected and AST and ALT were measured (FIG. 5b). Significant difference tests were performed for the 3 mg/kg and 10 mg/kg dose groups relative to the control group for each route of administration.
# [5] = test system: P. falciparum 3D7 laboratory strain; experiment: proliferation and life cycle of P. falciparum 3D7 at blood stage in vitro (Giemsa staining, FACS); type: cell-based; details: for life cycle of P. falciparum (microscopic observation, Giemsa staining): 24 and 48 hours after infection; for transition to schizont stage / schizont formation: in vitro culture
# Experimental: Then, an effect of the AP2-PIPA on proliferation of a P. falciparum 3D7 laboratory strain at a blood stage in vitro was examined. Human red blood cells were infected with P. falciparum and cultured in the presence or absence of the AP2-PIPA. Microscopic observation with Giemsa staining and quantitative count of parasites and their stages by FACS analysis were performed at 24 and 48 hours after the infection.
# [6] = test system: artemisinin-resistant plasmodium strain, various Plasmodium strains; experiment: proliferation of artemisinin-resistant and other Plasmodium strains in human red blood cells in vitro; type: cell-based; details: 72 hours after infection
# Experimental: Plasmodia were cultured in red blood cells in the presence of various concentrations of a PIPA and, 72 hours later, parasitemia was assessed;
# An effect of the AP2-PIPA on proliferation of an artemisinin-resistant strain in vitro was further examined (FIG. 4). Human red blood cells were infected with various Plasmodium strains and cultured in the presence or absence of the AP2-PIPA at various concentrations. Parasitemia was evaluated at 72 hours after the infection to verify a degree of proliferation of Plasmodium treated with various concentrations of the AP2-PIPA, and an IC50 value for the AP2-PIPA in each Plasmodium strain was calculated from the above results. As a result, the AP2-PIPA1 inhibited proliferation of the artemisinin-resistant plasmodium strain with a lower IC50.
# [7] = test system: Plasmodium berghei strain; experiment: mouse infection experiment, parasitemia; type: in vivo; details: intraperitoneal
# Experimental: Furthermore, an effect of the AP2-PIPA1 was verified in a mouse infection experiment. Mice were infected with a Plasmodium berghei strain and received the AP2-PIPA1 intraperitoneally at each time point (day 1, day 2, day 3, day 4, day 5, day 6, and day 7) shown in the upper schematic diagram in FIG. 6. Blood was collected at 11 or 13 days after the infection to assess parasitemia. […] Multiple administrations of a high dose, i.e., 30 mg/kg are believed to cause toxicity.
# [8] = test system: artemisinin-resistant plasmodium (Pf lek122); experiment: malaria treatment in humanized mice infected with artemisinin-resistant plasmodium; type: in vivo; details: i.p. on days 21-25, humanized NOG-SCID mice
# Description: AP2-PIPA1, which was designed in the same manner as in Example 1, was used to verify an inhibitory effect in vivo. Mice wherein red blood cells had been replaced with human red blood cells were infected with an artemisinin-resistant plasmodium and a therapeutic effect was examined in the thus-infected mice. The effect was verified in the case of administration of a PIPA alone and the case of combined administration with artemisinin.
# Humanized mice were created by injecting human red blood cells (RBCs) into NOG-SCID mice. One milliliter of 50% HCT, A+ve red blood cells prepared with 0.5% Albumax and 3.1 mM hypoxanthine was injected into the NOG-SCID mice once daily for 3 weeks until 80% of the human red blood cells were established. The humanized mice were then infected with an artemisinin-resistant plasmodium (Pf lek122) by 4×10^7 RBCS infected with synchronized ring-stage parasites, and checked for parasitemia by determining a rate of Giemsa-stain positive RBCs from the infected mice. On days 21, 22, 23, 24, and 25, AP2-PIPA1 (AP2-1), artemisinin, or both were injected i.p. at the indicated dose.
# Plasmodium spp. = details: known; cited from earlier work
# [9] = single intraperitoneal administration 5, 10, 20 mg/kg, observed 7 days
# [10] = 3 and 10 mg/kg vs control, blood on day 8
# [11] = 30 mg/kg dose group, multiple administrations
smiles,measurement,setting,value
CC(=O)Nc1cc(C(=O)Nc2cc(C(=O)NCCC(=O)Nc3cn(C)c(C(=O)Nc4cc(C(=O)NCCCC(=O)Nc5cn(C)c(C(=O)Nc6cc(C(=O)Nc7cc(C(=O)NCCC(=O)Nc8cc(C(=O)NCCC(=O)NCCCN(C)C)n(C)c8)n(C)c7)n(C)c6)n5)n(C)c4)n3)n(C)c2)n(C)c1 [AP2-PIPA1],Kd,[1],4 nM
same,toxicity (cytotoxicity),[2],not toxic
same,toxicity (cytotoxicity),"U937 cells, A549 cells",not toxic
same,AST activity,"[3]; mouse, in vivo, ip, 10 mg/kg",an upward trend was observed
same,deaths,[3]; [9],No deaths were observed
same,"general conditions, weight change, hematology test, blood chemistry test, autopsy",[3]; [9],no changes that were considered to be abnormal were found
same,minimum lethal dose,"[3]; single intraperitoneal administration, mice",greater than 20 mg/kg
same,toxicity of multiple administrations,[4]; dose range examined,not prominently toxic
same,ALT,[4]; [10],no significant difference
same,AST,[4]; [10],no significant difference
same,"life cycle of P. falciparum (microscopic observation, Giemsa staining)",[5]; human red blood cells,arrested a life cycle of P. falciparum at a trophozoite stage
same,morphological change (FACS analysis),"[5]; human red blood cells, at both 24 and 48 hours after infection",a morphological change was arrested at the trophozoite stage
same,transition to schizont stage / schizont formation,[5],specifically inhibits transition to a schizont stage
same,transition to schizont stage / schizont formation,[5]; listed as AP2-PIPA,strongly inhibit schizont formation
same,"IC50, proliferation (parasitemia)",[6]; artemisinin-resistant plasmodium strain,lower IC50
same,mouse death,[7]; [11],mouse death
same,parasitemia,[7]; [11],suppression of parasitemia
same,parasitemia,"[7]; day 1 to day 7, blood at 11 or 13 days after infection",dose-dependent suppression of parasitemia
same,therapeutic effect on malaria infection (parasitemia),[8]; administration alone,a therapeutic effect on malaria infection was confirmed
same,therapeutic effect on malaria infection (parasitemia),[8]; combined administration with artemisinin,a therapeutic effect on malaria infection was confirmed
CC(=O)Nc1cc(C(=O)Nc2cc(C(=O)NCCC(=O)Nc3cn(C)c(C(=O)Nc4cc(C(=O)NCCCC(=O)Nc5cn(C)c(C(=O)Nc6cc(C(=O)Nc7cc(C(=O)NCCC(=O)Nc8cc(C(=O)NCCC(=O)NCCCN(C)C)n(C)c8)n(C)c7)n(C)c6)n5)n(C)c4)n3)n(C)c2)n(C)c1 [AP2-PIPA2],"life cycle of P. falciparum (microscopic observation, Giemsa staining)",[5]; human red blood cells,thought to be effective at a higher concentration range than that used in this experiment
same,inhibitory effects on proliferation (parasitemia),[6]; any of the Plasmodium strains,no inhibitory effects
Cc1nccnc1N1CCN(S(=O)(=O)c2ccc(-c3ccc(=O)[nH]n3)s2)CC1 [MBX-4055],proliferation of Plasmodium spp.,Plasmodium spp.,known to inhibit proliferation of Plasmodium spp.
"C[C@@H]1CC[C@H]2[C@@H](C)C(=O)O[C@@H]3O[C@@]4(C)CC[C@@H]1[C@]32OO4 [artemisinin, reference compound]",therapeutic effect on malaria infection (parasitemia),[8]; administration alone,an effect of artemisinin could not be observed
